Where “and” joins values, the source holds several entries; their conditions need not be identical. Identical values can stand only once. Like-named read-outs stand apart in the source and are kept apart here.
Legend:
[1] = biological target: mutEGFR (D770_N771insSVD) (Homo sapiens (Human), UniProt P00533, INS770SVD); experiment: biochemical; details: mutEGFR (D770_N771 insSVD) at 2 mM ATP IC50, 2 mM ATP
human Bub1 = human Bub1 (Homo sapiens (Human), UniProt O43683); experiment: Bub1 high ATP kinase assay (TR-FRET); type: biochemical
Sequence of human Bub1 (O43683 704-1085): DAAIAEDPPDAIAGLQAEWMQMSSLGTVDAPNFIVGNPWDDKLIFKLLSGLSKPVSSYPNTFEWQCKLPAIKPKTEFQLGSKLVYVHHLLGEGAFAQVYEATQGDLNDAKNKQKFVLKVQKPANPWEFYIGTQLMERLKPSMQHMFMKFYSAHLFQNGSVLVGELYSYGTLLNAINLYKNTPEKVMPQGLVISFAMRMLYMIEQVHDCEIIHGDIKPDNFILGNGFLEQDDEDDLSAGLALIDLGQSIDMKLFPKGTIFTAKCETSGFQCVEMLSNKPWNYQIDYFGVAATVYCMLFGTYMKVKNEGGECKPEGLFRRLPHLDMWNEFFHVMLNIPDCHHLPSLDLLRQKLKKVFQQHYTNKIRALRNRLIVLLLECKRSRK
Text: Bub1-inhibitory activity of compounds of the present invention at a high ATP concentration was quantified employing the Bub1 TR-FRET high ATP kinase assay as described in the following paragraphs.
N-terminally His6-tagged recombinant catalytic domain of human Bub1 (amino acids 704-1085), expressed in insect cells (Hi5) and purified by Ni-NTA affinity chromatography and subsequent size exclusion chromatography, was used as enzyme.

Ba/F3-EGFR-WT = experiment: Ba/F3 cell survival assay, WT EGFR; type: cell-based
Ba/F3-EGFR-insSVD = experiment: Ba/F3 cell survival assay, EGFR-insSVD; type: cell-based
How it was run: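 Ba/F3 cells stably expressing WT EGFR or EGFR-insSVD via retrovirus, grown without IL-3 on 10 ng/mL EGF, plated at 4000 cells/well. Compound exposure 48 h at 37 °C; viability read by CellTiter-Glo luminescence.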

[2] = read-out: Bub1 high ATP (2 mM) IC50, 2 mM ATP
[3] = Mus musculus, BaF3, 48 h, read-out: BA/F3 (wild type) IC50, cell viability, Cell Titer-Glo, 48 h, with 10 ng/mL EGF, without IL-3
[4] = Mus musculus, BaF3, 48 h, read-out: BA/F3 (insSVD) IC50, cell viability, Cell Titer-Glo, 48 h, with 10 ng/mL EGF, without IL-3
[5] = Bub1 high ATP (2 mM) IC50, 2 mM ATP
[6] = read-out: BA/F3 (wild type) IC50, cell viability, Cell Titer-Glo, 48 h, with 10 ng/mL EGF, without IL-3
[7] = read-out: BA/F3 (insSVD) IC50, cell viability, Cell Titer-Glo, 48 h, with 10 ng/mL EGF, without IL-3

Sequence of mutEGFR (D770_N771insSVD) (P00533 other isoform, or with tags, fused parts or gaps ins SVD behind 770): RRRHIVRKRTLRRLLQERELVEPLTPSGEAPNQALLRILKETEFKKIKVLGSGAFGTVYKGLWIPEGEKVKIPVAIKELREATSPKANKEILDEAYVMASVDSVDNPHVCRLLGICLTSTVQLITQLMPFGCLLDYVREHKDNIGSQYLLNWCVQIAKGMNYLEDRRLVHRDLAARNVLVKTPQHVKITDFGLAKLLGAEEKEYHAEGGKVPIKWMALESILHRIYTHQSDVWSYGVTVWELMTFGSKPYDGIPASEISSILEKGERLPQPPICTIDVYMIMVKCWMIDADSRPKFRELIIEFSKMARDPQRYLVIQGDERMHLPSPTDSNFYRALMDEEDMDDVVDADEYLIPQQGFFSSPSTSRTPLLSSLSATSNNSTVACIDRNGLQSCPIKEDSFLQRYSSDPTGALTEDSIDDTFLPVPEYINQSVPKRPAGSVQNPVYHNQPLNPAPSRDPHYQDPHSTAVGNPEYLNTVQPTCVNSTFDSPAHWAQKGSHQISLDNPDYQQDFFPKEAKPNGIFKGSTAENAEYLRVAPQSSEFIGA

| Structure (SMILES) | IC50 [1] [nM] | IC50 (human Bub1; [2]) [µM] | IC50 (Ba/F3-EGFR-WT; [3]) [nM] | IC50 (Ba/F3-EGFR-insSVD; [4]) [nM] | IC50 (human Bub1; [5]) | IC50 (Ba/F3-EGFR-WT; [6]) [nM] | IC50 (Ba/F3-EGFR-insSVD; [7]) [nM] |
| --- | --- | --- | --- | --- | --- | --- | --- |
| Cc1cccc(Nc2c(-c3ccncc3OCC3(C)CCO3)[nH]c3c2C(=O)NCC3)c1Cl (racemic) [Example 55, 3-(2-chloro-3-methylanilino)-2-{3-[(2-methyloxetan-2-yl)methoxy]pyridin-4-yl}-1,5,6,7-tetrahydro-4H-pyrrolo[3,2-c]pyridin-4-one] | 0.138 | 15.4 | 593 | 67.3 |  |  |  |
| COc1c(Cl)cc(F)cc1Nc1c(-c2ccncc2OCC2(C)CCO2)[nH]c2c1C(=O)NCC2 (racemic) [Example 68, 3-(3-chloro-5-fluoro-2-methoxyanilino)-2-(3-{[2-methyloxetan-2-yl]methoxy}pyridin-4-yl)-1,5,6,7-tetrahydro-4H-pyrrolo[3,2-c]pyridin-4-one] | 0.215 | > 20 | 1260 | 103 |  |  |  |
| Cc1c(Cl)cccc1Nc1c(-c2ccncc2OCC2(C)CCO2)[nH]c2c1C(=O)NCC2 (racemic) [Example 80, 3-(3-chloro-2-methylanilino)-2-(3-{[2-methyloxetan-2-yl]methoxy}pyridin-4-yl)-1,5,6,7-tetrahydro-4H-pyrrolo[3,2-c]pyridin-4-one] | 0.187 | 6.64 | 546 | 35.2 |  |  |  |
| Cc1c(F)cccc1Nc1c(-c2ccncc2OCC2(C)CCO2)[nH]c2c1C(=O)NCC2 (racemic) [Example 83, 3-(3-fluoro-2-methylanilino)-2-(3-{[2-methyloxetan-2-yl]methoxy}pyridin-4-yl)-1,5,6,7-tetrahydro-4H-pyrrolo[3,2-c]pyridin-4-one] | 0.246 | > 20 | 986 | 41.9 |  |  |  |
| COc1c(Cl)cc(F)cc1Nc1c(-c2ccncc2OCC2(C)CCO2)[nH]c2c1C(=O)NCC2 (single isomer, unassigned) [Example 69, 3-(3-chloro-5-fluoro-2-methoxyanilino)-2-(3-{[2-methyloxetan-2-yl]methoxy}pyridin-4-yl)-1,5,6,7-tetrahydro-4H-pyrrolo[3,2-c]pyridin-4-one] | 0.317 |  |  |  | 13.5 µM | 1430 | 241 |
| COc1c(Cl)cc(F)cc1Nc1c(-c2ccncc2OCC2(C)CCO2)[nH]c2c1C(=O)NCC2 (single isomer, unassigned) [Example 70, 3-(3-chloro-5-fluoro-2-methoxyanilino)-2-(3-{[2-methyloxetan-2-yl]methoxy}pyridin-4-yl)-1,5,6,7-tetrahydro-4H-pyrrolo[3,2-c]pyridin-4-one] | 0.161 |  |  |  | 18.8 µM and > 20 µM | 537 | 32.7 |
| CCC1(COc2cnccc2-c2[nH]c3c(c2Nc2cccc(Cl)c2OC)C(=O)NCC3)COC1 [Example 22, 3-(3-chloro-2-methoxyanilino)-2-{3-[(3-ethyloxetan-3-yl)methoxy]pyridin-4-yl}-1,5,6,7-tetrahydro-4H-pyrrolo[3,2-c]pyridin-4-one] |  | 3.83 | 852 | 57.2 |  |  |  |
| COc1c(Cl)cccc1Nc1c(-c2ccncc2OC[C@@H]2CCN2C)[nH]c2c1C(=O)NCC2 [Example 27, 3-(3-chloro-2-methoxyanilino)-2-(3-{[(2S)-1-methylazetidin-2-yl]methoxy}pyridin-4-yl)-1,5,6,7-tetrahydro-4H-pyrrolo[3,2-c]pyridin-4-one] | 0.445 |  | 937 | 36.5 |  |  |  |
| CCN1CC[C@H]1COc1cnccc1-c1[nH]c2c(c1Nc1cccc(Cl)c1OC)C(=O)NCC2 [Example 28, 3-(3-chloro-2-methoxyanilino)-2-(3-{[(2S)-1-ethylazetidin-2-yl]methoxy}pyridin-4-yl)-1,5,6,7-tetrahydro-4H-pyrrolo[3,2-c]pyridin-4-one] | 1.06 |  | 1780 | 181 |  |  |  |
| COc1c(Cl)cccc1Nc1c(-c2ccncc2OC[C@@H]2CCN2CC(F)(F)F)[nH]c2c1C(=O)NCC2 [Example 29, 3-(3-chloro-2-methoxyanilino)-2-(3-{[(2S)-1-(2,2,2-trifluoroethyl)azetidin-2-yl]methoxy}pyridin-4-yl)-1,5,6,7-tetrahydro-4H-pyrrolo[3,2-c]pyridin-4-one] | 0.304 |  | 1040 | 60.8 |  |  |  |
| COc1c(Cl)cccc1Nc1c(-c2ccncc2OC[C@H]2CCN2CC(F)(F)F)[nH]c2c1C(=O)NCC2 [Example 30, 3-(3-chloro-2-methoxyanilino)-2-(3-{[(2R)-1-(2,2,2-trifluoroethyl)azetidin-2-yl]methoxy}pyridin-4-yl)-1,5,6,7-tetrahydro-4H-pyrrolo[3,2-c]pyridin-4-one] | 0.346 |  | 402 | 10.4 |  |  |  |
| COc1c(Cl)cccc1Nc1c(-c2ccncc2OCC2(C)CCN2C)[nH]c2c1C(=O)NCC2 (stereo not shown) [Example 31, 3-(3-chloro-2-methoxyanilino)-2-{3-[(1,2-dimethylazetidin-2-yl)methoxy]pyridin-4-yl}-1,5,6,7-tetrahydro-4H-pyrrolo[3,2-c]pyridin-4-one] |  | 7.54 | 391 | 23.7 |  |  |  |
| COc1c(Cl)cccc1Nc1c(-c2ccncc2OCC2(C)CCN2CC(F)(F)F)[nH]c2c1C(=O)NCC2 (stereo not shown) [Example 32, 3-(3-chloro-2-methoxyanilino)-2-(3-{[2-methyl-1-(2,2,2-trifluoroethyl)azetidin-2-yl]methoxy}pyridin-4-yl)-1,5,6,7-tetrahydro-4H-pyrrolo[3,2-c]pyridin-4-one] |  | > 20 | 298 | 12.2 |  |  |  |
| COc1c(F)cccc1Nc1c(-c2ccncc2OCC2(F)COC2)[nH]c2c1C(=O)NCC2 [Example 61, 3-(3-fluoro-2-methoxyanilino)-2-{3-[(3-fluorooxetan-3-yl)methoxy]pyridin-4-yl}-1,5,6,7-tetrahydro-4H-pyrrolo[3,2-c]pyridin-4-one] |  | > 20 | 3570 | 445 |  |  |  |
| Cc1cccc(Nc2c(-c3ccncc3OCCC3CCO3)[nH]c3c2C(=O)NCC3)c1Cl (stereo not shown) [Example 62, 3-(2-chloro-3-methylanilino)-2-{3-[2-(oxetan-2-yl)ethoxy]pyridin-4-yl}-1,5,6,7-tetrahydro-4H-pyrrolo[3,2-c]pyridin-4-one] |  | 5.25 | 3700 | 42.1 | > 5.71 µM |  |  |
| CCc1c(Cl)cccc1Nc1c(-c2ccncc2OCC2CCO2)[nH]c2c1C(=O)NCC2 (stereo not shown) [Example 77, 3-(3-chloro-2-ethylanilino)-2-(3-{[oxetan-2-yl]methoxy}pyridin-4-yl)-1,5,6,7-tetrahydro-4H-pyrrolo[3,2-c]pyridin-4-one] |  | 1.76 | 777 | 46.7 |  |  |  |
| COc1c(F)cccc1Nc1c(-c2ccncc2OC[C@H]2CCN2C)[nH]c2c1C(=O)NCC2 [Example 79, 3-(3-fluoro-2-methoxyanilino)-2-(3-{[(2R)-1-methylazetidin-2-yl]methoxy}pyridin-4-yl)-1,5,6,7-tetrahydro-4H-pyrrolo[3,2-c]pyridin-4-one] | 0.718 |  | 712 | 113 |  |  |  |
| CCC1(COc2cnccc2-c2[nH]c3c(c2Nc2cccc(Cl)c2Cl)C(=O)NCC3)COC1 [Example 87, 3-(2,3-dichloroanilino)-2-{3-[(3-ethyloxetan-3-yl)methoxy]pyridin-4-yl}-1,5,6,7-tetrahydro-4H-pyrrolo[3,2-c]pyridin-4-one] |  | > 5.7 | 813 | 119 |  |  |  |

Source: US20240307362A1 (priority 2019, published 2024)
